Experimental data reported in PMC5063996, “The Mechanism by Which Arabinoxylanases Can Recognize Highly Decorated Xylans” (The Journal of Biological Chemistry, 2016).

Target: T1, CtGH5-CBM6 (CtGH5-CtCBM6, derivative of arabinoxylanase CtXyl5A) (Acetivibrio thermocellus, UniProt A3DHG6, E279S)
T1 construct: gene Cthe_2193; no signal peptide, CBM13, Fn3, CBM62 or dockerin; C-terminal His6; E. coli BL21(DE3)
Assay: X-ray crystal structure, co-crystal, […] Å
Assay type: binding
Settings: nucleophile-inactive mutant; 10 mM WAX-derived oligosaccharide; subsites -1 to -4 and -2*; PDB code printed as 2LA2 (apparent misprint for 5LA2)

T1 sequence (A3DHG6 entry or part of it E279S): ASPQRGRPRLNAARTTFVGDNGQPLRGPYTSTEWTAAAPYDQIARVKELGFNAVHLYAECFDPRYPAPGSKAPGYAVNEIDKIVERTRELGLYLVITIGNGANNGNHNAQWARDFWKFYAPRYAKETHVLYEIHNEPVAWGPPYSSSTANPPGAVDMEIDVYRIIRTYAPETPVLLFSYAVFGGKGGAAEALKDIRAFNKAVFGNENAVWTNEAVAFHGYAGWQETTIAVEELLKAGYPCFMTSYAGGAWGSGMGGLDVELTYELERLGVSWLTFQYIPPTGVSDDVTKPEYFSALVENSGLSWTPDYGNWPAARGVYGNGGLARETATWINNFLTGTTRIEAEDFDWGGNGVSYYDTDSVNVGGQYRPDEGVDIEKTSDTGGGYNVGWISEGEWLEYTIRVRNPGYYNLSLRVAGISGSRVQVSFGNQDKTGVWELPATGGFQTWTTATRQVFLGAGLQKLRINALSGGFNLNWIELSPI

SMILES: OC[C@@H]1O[C@@H](O[C@H]2[C@H](O[C@@H]3OC[C@@H](O[C@@H]4OC[C@@H](O[C@@H]5OC[C@@H](O)[C@H](O)[C@H]5O)[C@H](O)[C@H]4O)[C@H](O)[C@H]3O)COC(O)[C@@H]2O)[C@H](O)[C@H]1O (stereo partly drawn) [Xylp-β-1,4-Xylp-β-1,4-Xylp-[α-1,3-Araf]-β-1,4-Xylp]
- X-ray crystal structure, co-crystal, 1.65 Å: co-crystallizing the nucleophile inactive mutant CtGH5E279S-CtCBM6 with a WAX-derived oligosaccharide
